The EC50 is the concentration that produces a half-maximal response. Read a low EC50 as greater potency. As usually defined, the IC50 is the concentration that inhibits the measured activity by half. Higher therefore signals weaker potency in that assay.

Molecules are shown by their SMILES.

In the first assay the test system is T47D. Kind of assay: Effective concentration against alkaline phosphatase activity in human T47D breast carcinoma cell line. In kind it is functional, cell-based.
Compound `Cn1c(C#N)ccc1-c1ccc2c(c1)C(C)(C)OC(=O)N2` came in with an EC50 of 1.1 nM. This lies in the single-digit nanomolar range.
As to `CCC1(CC)OC(S)=Nc2ccc(-c3ccc(C#N)n3C)cc21`, a half-maximal effect (EC50) was put at 0.1 nM.
With `CN1C(=S)OC(C)(C)c2cc(-c3ccc(C#N)[nH]3)ccc21`, the EC50 was determined as 21.1 nM. Compared with the last compound, the EC50 is about 210-fold higher.
Same read-out and setting: to `CC1(C)OC(=S)Nc2ccc(-c3ccc(C#N)[nH]3)cc21` belongs 0.15 nM; to `CC1Nc2ccc(-c3ccc(F)c(C#N)c3)cc2C(C)(C)O1` (configuration not stated), 23 nM.
Regarding `CC1(C)OC(S)=Nc2ccc(-c3coc(C#N)c3)cc21`, the EC50 came to 1.2 nM.
`Cn1c(C#N)ccc1-c1ccc2c(c1)C(C)(c1cccs1)OC(S)=N2` (configuration not stated): the half-maximal effective concentration (EC50) was found to be 0.35 nM.
Regarding `Cn1c(C#N)ccc1-c1ccc2c(c1)C(C)(C)OC(=S)N2` [TANAPROGET], the EC50 was found to be 0.15 nM.
`Cn1c(C#N)ccc1-c1ccc2c(c1)C1(CCC1)OC(S)=N2` displayed a 50% effective concentration (EC50) of 0.5 nM.
Same read-out and setting: to `CC1(C)OC(S)=Nc2ccc(-c3csc(C#N)c3)cc21` belongs 0.4 nM; to `CCC1(C)OC(S)=Nc2ccc(-c3ccc(C#N)n3C)cc21` (configuration not stated), 0.1 nM.

The next assay deals with T1, Progesterone receptor (Homo sapiens, UniProt P06401).
T1 sequence (P06401 whole entry): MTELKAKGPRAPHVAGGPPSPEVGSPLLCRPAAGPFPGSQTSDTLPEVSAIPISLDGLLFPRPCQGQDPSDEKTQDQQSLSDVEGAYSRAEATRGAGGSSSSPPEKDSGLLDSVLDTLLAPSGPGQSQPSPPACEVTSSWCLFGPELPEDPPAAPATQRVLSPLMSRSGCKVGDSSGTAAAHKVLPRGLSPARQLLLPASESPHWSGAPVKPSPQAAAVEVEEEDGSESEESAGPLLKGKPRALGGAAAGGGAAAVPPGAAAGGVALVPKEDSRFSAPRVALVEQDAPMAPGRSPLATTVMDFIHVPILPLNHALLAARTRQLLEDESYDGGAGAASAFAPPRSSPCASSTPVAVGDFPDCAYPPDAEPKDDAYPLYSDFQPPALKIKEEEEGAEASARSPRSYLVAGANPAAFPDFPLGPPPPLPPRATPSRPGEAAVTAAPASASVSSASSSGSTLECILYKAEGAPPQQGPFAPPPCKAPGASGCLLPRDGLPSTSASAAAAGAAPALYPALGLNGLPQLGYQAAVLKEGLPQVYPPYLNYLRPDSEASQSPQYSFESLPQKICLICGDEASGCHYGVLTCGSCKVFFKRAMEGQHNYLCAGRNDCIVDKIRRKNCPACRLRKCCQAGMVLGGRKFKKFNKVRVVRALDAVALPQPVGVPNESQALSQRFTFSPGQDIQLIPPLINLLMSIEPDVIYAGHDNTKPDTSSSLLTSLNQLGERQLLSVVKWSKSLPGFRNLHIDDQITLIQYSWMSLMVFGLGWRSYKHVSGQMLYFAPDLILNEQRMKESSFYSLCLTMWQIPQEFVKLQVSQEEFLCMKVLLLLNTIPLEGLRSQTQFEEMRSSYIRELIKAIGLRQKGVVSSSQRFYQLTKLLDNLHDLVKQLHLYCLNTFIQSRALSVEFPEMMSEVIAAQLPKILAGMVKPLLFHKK
Nature of the assay: Inhibition of human progesterone receptor.
`CC(C)n1c(=O)[nH]c2ccc(-c3cccc(Cl)c3)cc21` had a 50% inhibitory concentration (IC50) of 73 nM.

For the origin of these results see ChEMBL document CHEMBL1140352, “Synthesis and structure-activity relationship of novel 6-aryl-1,4-dihydrobenzo[d][1,3]oxazine-2-thiones as progesterone receptor modulators leading to the potent and selective nonsteroidal progesterone receptor agonist tanaproget” (J Med Chem, 2005).
